Values of other authors as cited in patent publication US20240335422A1, “COMPOSITION AND METHODS OF TREATMENT USING TRANSDERMAL SUPPLEMENTATION” (Xygenyx Inc., priority 2023, published 2024).

Experiments:
skin [1] = details: topical, in combination with silymarin and tocopherols, test studies
[2] = compared to α-tocopherol taken as 1.0
[3] = tested on: wide dynamic range neurons in the ventroposterolateral nucleus of the thalamus; details: in vivo
skin [4] = details: single penetration enhancer
skin [5] = details: topical, concentrations 0.5-5%
[6] = even when dietary intake occurs in equal portions
[7] = in vivo
[8] = not given; remark: listed apart in the source

## NCCC(=O)N[C@@H](Cc1cnc[nH]1)C(=O)O [carnosine, Carnosine]
Skin [1]
  reduction of age-related wrinkles: ≤ 27%

## Cc1cc(O)c(C)c2c1O[C@](C)(CCC[C@H](C)CCC[C@H](C)CCCC(C)C)CC2 [β-tocopherol]
[2]
  relative biological activity: 0.5

## CCCCCc1cc(O)c2c(c1)OC(C)(C)C1CCC(C)=CC21 (stereo not drawn) [THC, Δ-9-tetrahydrocannabinol]
[3]
  analgesic power relative to morphine: ten times more powerful than morphine

## CC(C)[C@@H]1CC[C@@H](C)C[C@H]1O [Menthol]
Skin [4]
  increase of transdermal drug uptake (factor): ≥ 10

## C=CCCCCCCCCC(=O)N[C@@H](Cc1ccccc1)C(=O)O [UP, Undecylenoyl phenylalanine]
Skin [5]
  time of treatment to skin lightening effects: ≥ 7 days

## Cc1cc(O)cc2c1O[C@](C)(CCC[C@H](C)CCC[C@H](C)CCCC(C)C)CC2 [δ-tocopherol]
[2]
  relative biological activity: 0.03

## Cc1c(O)cc2c(c1C)O[C@](C)(CCC[C@H](C)CCC[C@H](C)CCCC(C)C)CC2 [γ-tocopherol]
[6]
  concentration in vivo relative to α-tocopherol: roughly 10%
[2]
  relative biological activity: 0.1

## C/C(=C\CO)CCC[C@H](C)CCC[C@H](C)CCCC(C)C [phytol, Phytol]
other
  solubility: nearly insoluble in water, but soluble in most organic solvents

## HGH: hormone comprising a peptide chain synthesized in the pituitary gland
[7]
  biological half-life: 10-20 minutes

## Cc1c(C)c2c(c(C)c1O)CC[C@@](C)(CCC[C@H](C)CCC[C@H](C)CCCC(C)C)O2 [α-tocopherol]
[8]; dietary supplementation, doses up to 400 IU/day
  reduction of risk of coronary disease: up to 34%
[8]; dietary supplementation, doses up to 400 IU/day, controlled trials
  reduction of risk of developing neurodegenerative diseases (Alzheimer's Syndrome or dementia): ≤ 24%
[8]; in combination with 10-20 mg β-carotene and 400-500 mg vitamin C, doses around 400-500 IU
  reduction in the development of age-related cataracts: 23%
[8]; large doses of 1600-3200 IU/day
  blood plasma concentration of F2-isoprostane: significantly lower

## CC12CCC(CC1)C(C)(C)O2 [eucalyptol, 1,8-epoxy-p-menthane]
Skin [4]
  increase of transdermal drug uptake (factor): more than 10
